Measured values from PMC12693419, “Design, Synthesis, Biological Evaluation, and In Silico Studies of Novel Multitarget Cinnamic Acid Hybrids” (Molecules, 2025).
pEC50: −log10 of the molar value. Like-named read-outs stand apart in the source and are kept apart here.

Key:
[1] = molecular target: T1, COX-1 (Homo sapiens, UniProt P23219); experiment: In vitro inhibition of COX-1; format: biochemical
T1 construct: purchased Merck and Sigma-Aldrich
Source text: Enzyme inactivation can occur due to the accumulation of hydroperoxides formed from arachidonic acid or other fatty acid substrates. In order to prevent this in the in vitro experiment used for testing COX inhibition activity of the new molecules, a co-substrate like N,N,N′,N′-tetramethyl-p-phenylenediamine (TMPD) is included, as it undergoes co-oxidation by PGG2. The oxidized TMPD has a maximum absorbance at 590 nm. COX enzymes also depend on heme (Fe^3+-protoporphyrin IX) as a cofactor, which can dissociate during purification. To ensure maximum enzyme activity, heme is added to the reaction mixture during the in vitro assay for ovine COX-2 inhibition and COX-1 inhibition.
Cyclooxygenase (COX) activity was measured using arachidonic acid (AA) as the substrate and N,N,N′,N′-tetramethylphenylenediamine (TMPD) as the co-substrate following the reported method. […] The substrate oxidation was monitored at room temperature by recording the increase in absorbance at 590 nm. Absorbance due to the spontaneous oxidation of TMPD was subtracted from the initial oxidation rate observed in the presence of AA. The inhibitory activity of the test compounds at a concentration of 100 μM was evaluated after a 6-min pre-incubation with the enzyme in the presence of heme and TMPD.

[2] = In vitro determination of NO release with Griess reagent; conditions: 100 μM, L-cysteine, pH 7.4, 37 °C, 60 min
Source text: This assay evaluates the ability of nitrate esters to release nitric oxide (NO). First, sodium nitroprusside (SNP) reacts with the thiol compound, cysteine, which serves as a reducing agent (Scheme 5). The thiol donates electrons, facilitating the breakdown of the nitroprusside complex. Afterwards, the reaction leads to the formation of intermediate complexes, such as nitrosothiol species and the decomposition of these intermediates results in the release of nitric oxide (NO). According to the literature, measurements are conducted both in the presence and absence of the thiol agent, cysteine. No significant difference was observed between the two experimental conditions, and the results were reproducible. Sodium nitroprusside (SNP) was used as the reference compound [65].
The compounds (from a 10 mM stock solution in DMSO, final concentration 100 μM) are added (20 μL) to each test tube. Then, 2 mL of phosphate buffer solution (pH 7.4) is added. L-cysteine, used as the thiol agent, is added to the mixture at a final concentration of 0.5 mM. The solution is incubated at 37 °C for 60 min, after which 1 mL is removed and mixed with 250 μL of Griess reagent (4 g sulfanilamide, 0.2 g N-(1-naphthyl)-ethylenediamine dihydrochloride, and 10 mL of H3PO4 solution, final volume adjusted to 100 mL). The mixture is allowed to stand for 10 min at room temperature, and the absorbance of the produced compound is measured at 540 nm. Sodium nitroprusside (SNP) is used as the reference compound. The results are presented as the release of NO2^− (% NO2^− (mol/mol)) induced by the compounds in the presence of L-cysteine (Table 6).

[3] = tested on: MDA-MB-231 cells; experiment: MTT viability assay; format: cell-based; conditions: Homo sapiens, 48 h
[4] = tested on: MDA-MB-435 cells; experiment: MTT viability assay; format: cell-based; conditions: Homo sapiens, 48 h
[5] = tested on: U251 cells; experiment: MTT viability assay; format: cell-based; conditions: Homo sapiens, U-251, 48 h
[6] = tested on: U87 cells; experiment: MTT viability assay; format: cell-based; conditions: Homo sapiens, U-87 MG, 48 h
[7] = tested on: multiple cancer cell lines; experiment: MTT viability assay, summary over several lines; format: cell-based
Description: HeLa, MCF-7, U251, U87, MDA-MB-435, and MDA-MB-231 cancer cell lines were maintained in incubators at 37 °C with 5% CO2 in DMEM medium supplemented with 10% (v/v) fetal bovine serum (FBS) and antibiotics/antimycotics. All cell lines used in this study originate from the Laboratory of Biochemistry, Department of Chemistry, Aristotle University of Thessaloniki. They are low-passage, mycoplasma-free cancer cell lines that have been extensively used over the past 25 years in numerous studies across various fields of cancer research, including drug cytotoxicity testing.
All cell lines tested were seeded in 96-well plates at a concentration of 6 × 10^3 cells per well, except HeLa, which were seeded at 3 × 10^3 cells per well. The day after, cells were exposed to increasing concentrations of the compounds for 48 h. Cell viability was determined using the 3-(4,5-dimethylthiazol-2-yl)-2,5-diphenyltetrazolium bromide (MTT) assay, a colorimetric assessment of cellular metabolic activity as described previously. Absorbance values from treated samples were normalized to those of untreated controls, which were assigned to a 100% viability value.

T1 sequence (P23219 24-599): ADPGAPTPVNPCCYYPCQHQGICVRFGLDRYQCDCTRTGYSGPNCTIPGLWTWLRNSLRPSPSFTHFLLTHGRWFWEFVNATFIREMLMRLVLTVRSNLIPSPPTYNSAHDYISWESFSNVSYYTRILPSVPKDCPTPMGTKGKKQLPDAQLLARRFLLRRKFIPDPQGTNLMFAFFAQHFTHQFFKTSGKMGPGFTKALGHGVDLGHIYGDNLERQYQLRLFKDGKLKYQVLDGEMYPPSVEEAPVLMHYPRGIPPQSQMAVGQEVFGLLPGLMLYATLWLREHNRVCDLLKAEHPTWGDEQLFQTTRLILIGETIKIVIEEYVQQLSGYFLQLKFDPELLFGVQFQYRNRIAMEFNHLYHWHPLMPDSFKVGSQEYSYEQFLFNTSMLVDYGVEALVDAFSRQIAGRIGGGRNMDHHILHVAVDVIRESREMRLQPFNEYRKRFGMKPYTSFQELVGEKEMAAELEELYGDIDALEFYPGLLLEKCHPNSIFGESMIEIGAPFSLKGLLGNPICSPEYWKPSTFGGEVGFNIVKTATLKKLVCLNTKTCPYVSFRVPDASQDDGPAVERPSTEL

C/C(=N\O)c1ccc(NC(=O)COC(=O)/C=C/c2cccs2)cc1 [Compound 6c, 2-((4-((E)-1-(Hydroxyimino)ethyl)phenyl)amino)-2-oxoethyl (E)-3-(thiophen-2-yl)acrylate]
inhibition at 100 µM [1]: 0%
COX-1 at 100 μM (% inhibition) [1]: did not show any inhibition activity and no
%NO2^− Release mol/mol at 100 μΜ [2]: 4%

C/C(=N\O)c1ccc(NC(=O)COC(=O)/C(=C/c2cccs2)c2ccccc2)cc1 [Compound 6i, 2-((4-((E)-1-(Hydroxyimino)ethyl)phenyl)amino)-2-oxoethyl (E)-2-phenyl-3-(thiophen-2-yl)acrylate]
inhibition at 100 µM [1]: 16.7%
%NO2^− Release mol/mol at 100 μΜ [2]: no activity and no
pEC50 [3]: 4.37
pEC50 [4]: 4.28
pEC50 [5]: 4.39
pEC50 [6]: 4.34
pEC50 ([7]; U251, U87, and MDA-MB-231, read-out: EC50 values in the remaining cell lines): 4.34 to 4.39
pEC50 ([7]; read-out: EC50 values across multiple cancer cell lines): 4.35 to 4.44

O=C(/C=C/c1cc2ccccc2s1)OCc1c(-c2ccccc2)no[n+]1[O-] [Compound 9e, (E)-3-(((3-(Benzo[b]thiophen-2-yl)acryloyl)oxy)methyl)-4-phenyl-1,2,5-oxadiazole 2-oxide]
inhibition at 100 µM [1]: 0%
COX-1 at 100 μM (% inhibition) [1]: did not show any inhibition activity and no
%NO2^− Release mol/mol at 100 μΜ [2]: no
